PubChem BioAssay AID248 (DTP/NCI, 2004)
Values joined by “and” are separate entries in the source; they are usually repeats but may differ in a detail not shown here. Identical values can stand only once. Inconclusive results and toxic doses are left out.

Tested on: L1210 leukemia ip in BDF1 mice, survival T/C
Assay: NCI In Vivo Anticancer Drug Screen. Data for tumor model L1210 Leukemia (intraperitoneal) in B6D2F1 (BDF1) mice
Conditions: endpoint: mean survival time, higher = longer survival
How it was run: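 Mice bearing the transplanted tumor received compound or vehicle. Survival of the treated group was divided by that of the vehicle-treated control group to give the ratio.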

[1] = dose: 100.0 mg/kg/injection, schedule: Q01DX001 (ip), vehicle: saline
[2] = dose: 200.0 mg/kg/injection, schedule: Q01DX001 (ip), vehicle: saline
[3] = dose: 100.0 mg/kg/injection, schedule: Q01DX009 (ip), vehicle: Klucel (hydroxypropylcellulose) (HPC)
[4] = dose: 200.0 mg/kg/injection, schedule: Q01DX009 (ip), vehicle: Klucel (hydroxypropylcellulose) (HPC)
[5] = dose: 400.0 mg/kg/injection, schedule: Q01DX009 (ip), vehicle: Klucel (hydroxypropylcellulose) (HPC)
[6] = dose: 100.0 mg/kg/injection, schedule: Q01DX001 (ip), vehicle: carboxymethylcellulose (CMC)
[7] = dose: 200.0 mg/kg/injection, schedule: Q01DX001 (ip), vehicle: carboxymethylcellulose (CMC)
[8] = dose: 400.0 mg/kg/injection, schedule: Q01DX001 (ip), vehicle: carboxymethylcellulose (CMC)
[9] = dose: 12.5 mg/kg/injection, schedule: Q01DX009 (ip), vehicle: saline with Tween-80
[10] = dose: 25.0 mg/kg/injection, schedule: Q01DX009 (ip), vehicle: saline with Tween-80
[11] = dose: 100.0 mg/kg/injection, schedule: Q04DX003 (ip), vehicle: saline with Tween-80
[12] = dose: 200.0 mg/kg/injection, schedule: Q04DX003 (ip), vehicle: saline with Tween-80
[13] = dose: 400.0 mg/kg/injection, schedule: Q04DX003 (ip), vehicle: saline with Tween-80
[14] = dose: 400.0 mg/kg/injection, schedule: Q01DX001 (ip), vehicle: saline

Compound: CC(=O)OCC1OC(n2cnc3c(=S)nc(N)[nH]c32)C(OC(C)=O)C1OC(C)=O (stereo not drawn)
- T/C (dose: 1.6 mg/kg/injection, schedule: Q01DX Z (ip), vehicle: carboxymethylcellulose (CMC)): 106 % of control
- T/C (dose: 5.0 mg/kg/injection, schedule: Q01DX Z (ip), vehicle: carboxymethylcellulose (CMC)): 162 % of control
- T/C (dose: 6.25 mg/kg/injection, schedule: Q01DX Z (oral), vehicle: other): 94 % of control
- T/C (dose: 7.5 mg/kg/injection, schedule: Q01DX Z (ip), vehicle: carboxymethylcellulose (CMC)): 162 % of control
- T/C (dose: 11.2 mg/kg/injection, schedule: Q01DX Z (ip), vehicle: carboxymethylcellulose (CMC)): 176 % of control
- T/C (dose: 12.5 mg/kg/injection, schedule: Q01DX Z (oral), vehicle: other): 106 % of control
- T/C (dose: 25.0 mg/kg/injection, schedule: Q01DX Z (oral), vehicle: other): 105 % of control
- T/C (dose: 44.0 mg/kg/injection, schedule: Q01DX Z (ip), vehicle: carboxymethylcellulose (CMC)): 86 % of control
- T/C (dose: 50.0 mg/kg/injection, schedule: Q01DX001 (ip), vehicle: saline): 100 % of control
- T/C (dose: 50.0 mg/kg/injection, schedule: Q01DX Z (oral), vehicle: other): 122 % of control
- T/C [1]: 123 % of control
- T/C (dose: 150.0 mg/kg/injection, schedule: Q01DX015 (oral), vehicle: other): 120 % of control
- T/C [2]: 103 % of control
- T/C (dose: 200.0 mg/kg/injection, schedule: Q01DX015 (oral), vehicle: other): 97 % of control
- T/C (dose: 250.0 mg/kg/injection, schedule: Q01DX015 (oral), vehicle: other): 94 % of control

Compound: N#Cc1c(F)c(F)c(Oc2c(F)c(F)c(F)c(Oc3c(F)c(F)c(C#N)c(F)c3F)c2F)c(F)c1F
- T/C (dose: 100.0 mg/kg/injection, schedule: Q01DX009 (ip), vehicle: other): 103 % of control
- T/C (dose: 100.0 mg/kg/injection, schedule: Q04DX003 (ip), vehicle: other): 100 % of control
- T/C (dose: 200.0 mg/kg/injection, schedule: Q01DX009 (ip), vehicle: other): 100 % of control
- T/C (dose: 200.0 mg/kg/injection, schedule: Q04DX003 (ip), vehicle: other): 97 % of control and 100 % of control
- T/C (dose: 400.0 mg/kg/injection, schedule: Q04DX003 (ip), vehicle: other): 86 % of control

Compound: Cc1cc(Br)ccc1NC(=O)/C=C/C(=O)O
- T/C (dose: 100.0 mg/kg/injection, schedule: Q04DX002 (ip), vehicle: Klucel (hydroxypropylcellulose) (HPC)): 114 % of control
- T/C (dose: 200.0 mg/kg/injection, schedule: Q04DX002 (ip), vehicle: Klucel (hydroxypropylcellulose) (HPC)): 95 % of control
- T/C (dose: 400.0 mg/kg/injection, schedule: Q04DX002 (ip), vehicle: Klucel (hydroxypropylcellulose) (HPC)): 100 % of control

Compound: Cc1cccc(NC(=O)COc2cc(Cl)c(Cl)cc2Cl)c1C
- T/C [3]: 98 % of control
- T/C [4]: 93 % of control
- T/C [5]: 101 % of control

Compound: O=C(NC(=S)Nc1ccc(F)cc1)c1cccc2ccccc12
- T/C [3]: 96 % of control
- T/C (dose: 100.0 mg/kg/injection, schedule: Q04DX003 (ip), vehicle: Klucel (hydroxypropylcellulose) (HPC)): 104 % of control
- T/C [4]: 91 % of control
- T/C (dose: 200.0 mg/kg/injection, schedule: Q04DX003 (ip), vehicle: Klucel (hydroxypropylcellulose) (HPC)): 100 % of control
- T/C [5]: 101 % of control
- T/C (dose: 400.0 mg/kg/injection, schedule: Q04DX003 (ip), vehicle: Klucel (hydroxypropylcellulose) (HPC)): 97 % of control

Compound: Cc1ccccc1/C=N/Nc1nnc(N/N=C/c2ccccc2C)c2ccccc12
- T/C [6]: 91 % of control
- T/C [7]: 109 % of control
- T/C [8]: 95 % of control

Compound: O=C(c1ccccc1)C1C(c2ccccc2)OP(c2ccccc2)(c2ccccc2)(c2ccccc2)C1c1ccccc1 (stereo not drawn)
- T/C (dose: 6.25 mg/kg/injection, schedule: Q04DX003 (ip), vehicle: saline with Tween-80): 102 % of control
- T/C [9]: 97 % of control
- T/C (dose: 25.0 mg/kg/injection, schedule: Q04DX003 (ip), vehicle: saline with Tween-80): 94 % of control

Compound: ClCCCCCCCCc1ccccc1
- T/C (dose: 100.0 mg/kg/injection, schedule: Q01DX009 (ip), vehicle: saline sonified): 105 % of control
- T/C (dose: 100.0 mg/kg/injection, schedule: Q04DX003 (ip), vehicle: saline sonified): 100 % of control
- T/C (dose: 200.0 mg/kg/injection, schedule: Q01DX009 (ip), vehicle: saline sonified): 102 % of control
- T/C (dose: 200.0 mg/kg/injection, schedule: Q04DX003 (ip), vehicle: saline sonified): 102 % of control
- T/C (dose: 400.0 mg/kg/injection, schedule: Q01DX009 (ip), vehicle: saline sonified): 107 % of control
- T/C (dose: 400.0 mg/kg/injection, schedule: Q04DX003 (ip), vehicle: saline sonified): 96 % of control

Compound: O=C(Nc1ccccc1)c1cc(Cl)ccn1
- T/C [6]: 100 % of control
- T/C [7]: 97 % of control
- T/C [8]: 97 % of control

Compound: C/C(=N\N)c1ccc(Cl)cc1
- T/C (dose: 6.25 mg/kg/injection, schedule: Q01DX009 (ip), vehicle: saline with Tween-80): 93 % of control
- T/C [9]: 101 % of control
- T/C [10]: 96 % of control

Compound: CNC(=O)NNC(=O)c1ccc(Cl)cc1
- T/C [10]: 91 % of control
- T/C (dose: 50.0 mg/kg/injection, schedule: Q01DX009 (ip), vehicle: saline with Tween-80): 94 % of control

Compound: O=C(O)C1CCC[N-]C1.O=C(O)C1CCC[N-]C1.[Cl][Pt+2][Cl] (stereo not drawn)
- T/C (dose: 5.0 mg/kg/injection, schedule: Q01DX009 (ip), vehicle: saline with Tween-80): 95 % of control
- T/C (dose: 10.0 mg/kg/injection, schedule: Q01DX009 (ip), vehicle: saline with Tween-80): 103 % of control
- T/C (dose: 20.0 mg/kg/injection, schedule: Q01DX009 (ip), vehicle: saline with Tween-80): 106 % of control

Compound: N#CCCC1CCCCC1=O (stereo not drawn)
- T/C (dose: 75.0 mg/kg/injection, schedule: Q01DX001 (ip), vehicle: other): 97 % of control
- T/C (dose: 100.0 mg/kg/injection, schedule: Q01DX009 (ip), vehicle: saline with Tween-80): 94 % of control
- T/C [11]: 98 % of control
- T/C (dose: 150.0 mg/kg/injection, schedule: Q01DX001 (ip), vehicle: other): 100 % of control
- T/C (dose: 200.0 mg/kg/injection, schedule: Q01DX009 (ip), vehicle: saline with Tween-80): 96 % of control
- T/C [12]: 96 % of control
- T/C (dose: 300.0 mg/kg/injection, schedule: Q01DX001 (ip), vehicle: other): 100 % of control
- T/C [13]: 102 % of control

Compound: CCC1CCC2C(CCC3(N(C)C)CCC(OC)C(OC)C23)C1 (stereo not drawn)
- T/C (dose: 3.13 mg/kg/injection, schedule: Q01DX001 (ip), vehicle: saline with Tween-80): 98 % of control
- T/C (dose: 6.25 mg/kg/injection, schedule: Q01DX001 (ip), vehicle: saline with Tween-80): 96 % of control
- T/C (dose: 12.5 mg/kg/injection, schedule: Q01DX001 (ip), vehicle: saline with Tween-80): 100 % of control

Compound: Cc1cc(Br)c(O)c(Br)c1
- T/C (dose: 75.0 mg/kg/injection, schedule: Q01DX001 (ip), vehicle: Klucel (hydroxypropylcellulose) (HPC)): 99 % of control
- T/C (dose: 150.0 mg/kg/injection, schedule: Q01DX001 (ip), vehicle: Klucel (hydroxypropylcellulose) (HPC)): 100 % of control
- T/C (dose: 300.0 mg/kg/injection, schedule: Q01DX001 (ip), vehicle: Klucel (hydroxypropylcellulose) (HPC)): 95 % of control

Compound: COC(=O)/C=C(\C)Nc1cc(OC)ccc1OC
- T/C [1]: 94 % of control
- T/C [2]: 87 % of control
- T/C [14]: 92 % of control

Compound: OC(COc1ccccc1)CN1CCN(c2cccc(Cl)c2)CC1 (stereo not drawn)
- T/C [1]: 97 % of control
- T/C [2]: 95 % of control
- T/C [14]: 92 % of control

Compound: Cc1ccc(OCC(O)CN2CCN(c3ccc(Cl)cc3)CC2)cc1 (stereo not drawn)
- T/C (dose: 63.0 mg/kg/injection, schedule: Q01DX015 (ip), vehicle: carboxymethylcellulose (CMC)): 95 % of control
- T/C [11]: 91 % of control
- T/C (dose: 125.0 mg/kg/injection, schedule: Q01DX015 (ip), vehicle: carboxymethylcellulose (CMC)): 95 % of control
- T/C [12]: 94 % of control
- T/C (dose: 250.0 mg/kg/injection, schedule: Q01DX015 (ip), vehicle: carboxymethylcellulose (CMC)): 95 % of control
- T/C [13]: 89 % of control
- T/C (dose: 500.0 mg/kg/injection, schedule: Q01DX015 (ip), vehicle: carboxymethylcellulose (CMC)): 91 % of control
- T/C (dose: 1000.0 mg/kg/injection, schedule: Q01DX015 (ip), vehicle: carboxymethylcellulose (CMC)): 95 % of control
